Measurements reported in patent publication US20070020140A1, “Decontamination of biological microbes using metal cations suspended in ethanol” (priority 2005, published 2007).

Experiments:
[1] = system: B. atrophaeus subspecies globigii spores; assay type: cell-based, Bacillus atrophaeus subspecies globigii; conditions: 0.5 M in water
Method: Dry-prepared spores of non-pathogenic B. atrophaeus subspecies globigii (B. globigii or Bg) were prepared at the Army's Dugway Proving Ground to mimic a bio-weapon, and they are used for bio-weapons studies, including the following experiments. The assay for decontamination experiments was performed with 3-4 replicates and many experiments were reproduced numerous times. The assay included the steps of (1) suspending Bg spores in the appropriate solvent (water or ethanol) at a concentration of 2 mg spores/ml (approximately 2×10^8 spores/ml) with starting volume of over 1 ml of spores at 2 mg/ml; (2) removing 3 or 4 spore aliquots of 50 ul per aliquot with each aliquot serially diluted in 1x PBS and plated on Luria-Bertani (LB) or Tryptic Soy (TSA) agar plates (this is a control step that gave the spore titer or colony-forming units (CFUs) at Time=0 minutes (T0)); (3) placing the appropriate decontamination solution (2x concentration) aliquoted into each of 3 or 4 eppendorf tubes with 200 ul per tube and then 200 ul of spores were added and mixed to give a final concentration of 1x decontamination solution and 1 mg spores/ml; (4) the spores in decontamination solution were then mixed and incubated for specific time periods and temperatures. A typical incubation was in a room temperature (25° C.) water bath for 30 (or 60) minutes (no agitation was performed during the incubation period in order to mimic real world situations); (5) aliquots of spores from the 3 or 4 replicates were removed after 30 (or 60) minutes with the aliquots serially diluted in 1x PBS and plated on LB or TSA agar plates which gave a CFU at Time=30 minutes (T30) (the titer of live spores after the decontamination test); (6) after removing the aliquots at the 30-minute time point, some test samples were then immediately incubated in a 70° C. water bath for another 30 minutes, the samples were then serially diluted and plated on to LB agar plates to determine the titer after the 70° C. incubation.

[2] = system: Bacillus atrophaeus subspecies globigii spores; test: Assay to quantify spore kills, dry-prepared Bg spores (section 2); assay type: cell-based; conditions: 0.5 M, 15 minutes at 25° C., FIG. 4
[3] = system: Bacillus cereus spores; test: Assay to quantify spore kills, wet-prepared Bc spores (section 2); assay type: cell-based, B. cereus RSVF1, ATCC 4342; conditions: FIG. 5
[4] = 60 minutes at 25° C., ten out of the thirteen experiments
[5] = additional 30 minutes at 70° C., pH-neutralized to pH 7-8, all 11 experiments
[6] = 0.5 M in 50%, 75% and 90% ethanol, 15 minutes at 25° C.

[Cl][Cu][Cl] [Cu^+2, copper chloride]
log spore kill [1, 4]: > 1 log
spore kills [1, 4]: greater than 92%
kill of spores [1, 5]: 100%
logs of kill [1, 5]: > 7 logs
activity against Bg spores ([2]; in 50%, 75% and 90% ethanol): strongest activity
activity against Bc spores [3, 6]: strong activity

O.O.[Ca+2].[Cl-].[Cl-] [Ca^+2, CaCl2-2H2O]
effect on Bg spores ([2]; regardless of the solvent (water, 25-90% ethanol)): no affect
effect on Bc spores ([3]; 0.5 M in water, 25%, 50%, 75% or 90% ethanol, 15 minutes at 25° C.): no affect

O.O.O.O.O.O.[Cl-].[Cl-].[Cl-].[Fe+3] [Fe^+3, FeCl3·6H2O]
CFU reduction ([2]; in water and at any ethanol concentration): greater than three logs
CFU reduction (logs) [3, 6]: greater than three logs
CFU reduction (percent) [3, 6]: > 99.9%
CFU reduced relative to the control ([3]; 0.5 M in water, within 15 minutes): less than half a log

[Cl-].[Cl-].[Zn+2] [Zn^+2, ZnCl2]
CFU reduction ([2]; in 50% ethanol): greater than two logs
activity against Bc spores ([3]; 0.5 M in 50% and 75% ethanol, 15 minutes at 25° C.): slight activity
